Starred links: 1 amine or outer side, 2 acyl side, 3 side chain; linkers in the order of their positions; H or OH if unused. Non-standard residues stand in square brackets, D forms with d. Residues, ends and D or L forms follow the SMILES beside them. *: point of attachment. X2 = O=C([C@@H]1C[C@@H](CCCc2ccccc2)CN1[*:1])[*:2]; X3 = O=C([C@@H]1C[C@@H](CCc2ccccc2)CN1[*:1])[*:2]; Pro(4R-Bn) = O=C(O)[C@@H]1C[C@@H](Cc2ccccc2)CN1; CH2(1-naphthyl) = c1ccc2c(C*)cccc2c1; mXylylene = c1cc(C[*:1])cc(C[*:2])c1; oXylylene = c1ccc(C[*:2])c(C[*:1])c1; Glutaryl = O=C(CCCC(=O)[*:2])[*:1]; Hyp = O=C(O)[C@@H]1C[C@@H](O)CN1; Chg = N[C@H](C(=O)O)C1CCCCC1; Nva = CCC[C@H](N)C(=O)O; X1 = c1ccc2cc(C*)ccc2c1; Ac3c = NC1(C(=O)O)CC1; Meb = Cc1ccc(C*)cc1; CF3 = FC(F)(F)*
How the values were obtained:
[1] = target: T1, NS3 (Hepatitis C virus, UniProt A3EZJ3); test: Inhibitory activity against NS3 protease complexed with NS4A cofactor peptide (NS3-4A pep); design: species or system Hepacivirus hominis
T1 sequence (A3EZJ3 whole entry): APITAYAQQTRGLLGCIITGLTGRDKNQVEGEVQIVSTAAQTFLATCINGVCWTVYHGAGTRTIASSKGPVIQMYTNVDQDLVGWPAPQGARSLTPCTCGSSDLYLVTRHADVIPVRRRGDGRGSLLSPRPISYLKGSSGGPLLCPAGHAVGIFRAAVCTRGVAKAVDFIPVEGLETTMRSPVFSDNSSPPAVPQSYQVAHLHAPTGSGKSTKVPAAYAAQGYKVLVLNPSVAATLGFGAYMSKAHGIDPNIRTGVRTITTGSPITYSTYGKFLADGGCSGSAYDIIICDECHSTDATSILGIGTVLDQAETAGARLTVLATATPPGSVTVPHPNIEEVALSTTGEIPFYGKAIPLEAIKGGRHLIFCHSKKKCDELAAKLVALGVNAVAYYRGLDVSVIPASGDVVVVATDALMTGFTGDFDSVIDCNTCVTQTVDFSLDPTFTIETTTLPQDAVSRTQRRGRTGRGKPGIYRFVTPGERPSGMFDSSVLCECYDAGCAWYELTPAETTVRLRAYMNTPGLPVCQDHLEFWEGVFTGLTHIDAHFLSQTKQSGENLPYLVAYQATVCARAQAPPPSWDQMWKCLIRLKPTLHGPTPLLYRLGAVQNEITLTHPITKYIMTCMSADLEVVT

[2] = target: Cathepsin B (Homo sapiens, UniProt P07858); test: Compound was evaluated for its inhibitory activity against cathepsin B
[3] = target: T1, NS3; test: Compound was evaluated for its binding affinity against NS3 protease complexed with NS4A cofactor peptide (NS3-4A pep); design: species or system Hepacivirus hominis
[4] = target: Chymotrypsinogen B (Homo sapiens, UniProt P17538); test: Compound was evaluated for its inhibitory activity against Chymotrypsinogen
Sequence of Chymotrypsinogen B (P17538 34-164 limits assumed, other chains not shown): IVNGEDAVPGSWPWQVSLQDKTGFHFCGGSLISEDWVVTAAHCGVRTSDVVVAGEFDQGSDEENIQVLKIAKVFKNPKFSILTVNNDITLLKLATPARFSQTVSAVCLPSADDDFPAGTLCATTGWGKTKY
Sequence of Chymotrypsinogen B (P17538 167-263 limits assumed, other chains not shown): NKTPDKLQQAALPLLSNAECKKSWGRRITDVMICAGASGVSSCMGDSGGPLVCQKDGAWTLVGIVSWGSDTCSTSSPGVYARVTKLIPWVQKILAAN

[5] = target: T2, Neutrophil elastase (Homo sapiens, UniProt P08246); test: Compound was evaluated for its inhibitory activity against human leukocyte elastase (HLE)
T2 sequence (P08246 whole entry): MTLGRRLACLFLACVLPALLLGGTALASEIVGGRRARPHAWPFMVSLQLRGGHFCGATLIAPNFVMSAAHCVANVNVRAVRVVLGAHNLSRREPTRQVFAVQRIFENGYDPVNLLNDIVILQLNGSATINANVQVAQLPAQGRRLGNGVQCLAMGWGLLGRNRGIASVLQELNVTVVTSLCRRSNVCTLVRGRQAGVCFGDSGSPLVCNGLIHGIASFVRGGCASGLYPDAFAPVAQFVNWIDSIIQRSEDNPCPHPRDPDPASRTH

Structure (SMILES) | IC50 [1] [µM] | also measured
CC[C@H](C)[C@H](NC(=O)[C@H](CC(=O)O)NC(=O)[C@H](CC(=O)O)NC(C)=O)C(=O)N[C@H](C(=O)N1CCC[C@H]1C(=O)NC1(C(=O)O)CC1)C(C)C (Ac-DDIVP[Ac3c]-OH) | 54 | –
CCC[C@H](NC(=O)[C@@H]1CCCN1C(=O)[C@@H](NC(=O)[C@@H](NC(=O)[C@H](CC(=O)O)NC(=O)[C@H](CC(=O)O)NC(C)=O)[C@@H](C)CC)C(C)C)C(=O)O (Ac-DDIVP[Nva]-OH) | 150 | –
CCC[C@H](NC(=O)[C@@H]1C[C@@H](OCc2cccc3ccccc23)CN1C(=O)[C@@H](NC(=O)[C@@H](NC(=O)[C@H](CC(=O)O)NC(=O)[C@H](CC(=O)O)NC(C)=O)[C@@H](C)CC)C(C)C)C(=O)O (Ac-DDIV[Hyp](CH2(1-naphthyl))[Nva]-OH) | 0.39 | –
CCC[C@H](NC(=O)[C@@H]1C[C@@H](OCc2ccc(C)cc2)CN1C(=O)[C@@H](NC(=O)[C@@H](NC(=O)[C@H](CC(=O)O)NC(=O)[C@H](CC(=O)O)NC(C)=O)[C@@H](C)CC)C(C)C)C(=O)O (Ac-DDIV[Hyp](Meb)[Nva]-OH) | 2.5 | –
CCC[C@H](NC(=O)[C@@H]1C[C@@H](OCc2ccc3ccccc3c2)CN1C(=O)[C@@H](NC(=O)[C@@H](NC(=O)[C@H](CC(=O)O)NC(=O)[C@H](CC(=O)O)NC(C)=O)[C@@H](C)CC)C(C)C)C(=O)O (Ac-DDIV[Hyp](X1)[Nva]-OH) | 0.71 | –
CCC[C@H](NC(=O)[C@@H]1C[C@@H](OCc2cccc(C)c2)CN1C(=O)[C@@H](NC(=O)[C@@H](NC(=O)[C@H](CC(=O)O)NC(=O)[C@H](CC(=O)O)NC(C)=O)[C@@H](C)CC)C(C)C)C(=O)O (Ac-DDIV[Hyp](mXylylene)[Nva]-OH) | 3.5 | –
CCC[C@H](NC(=O)[C@@H]1C[C@@H](OCc2ccccc2C)CN1C(=O)[C@@H](NC(=O)[C@@H](NC(=O)[C@H](CC(=O)O)NC(=O)[C@H](CC(=O)O)NC(C)=O)[C@@H](C)CC)C(C)C)C(=O)O (Ac-DDIV[Hyp](oXylylene)[Nva]-OH) | 6.8 | –
CCC[C@H](NC(=O)[C@@H]1C[C@@H](O)CN1C(=O)[C@@H](NC(=O)[C@@H](NC(=O)[C@H](CC(=O)O)NC(=O)[C@H](CC(=O)O)NC(C)=O)[C@@H](C)CC)C(C)C)C(=O)O (Ac-DDIV[Hyp][Nva]-OH) | 93 | –
CCC[C@H](NC(=O)[C@@H]1C[C@@H](Cc2ccccc2)CN1C(=O)[C@@H](NC(=O)[C@@H](NC(=O)[C@H](CC(=O)O)NC(=O)[C@H](CC(=O)O)NC(C)=O)[C@@H](C)CC)C(C)C)C(=O)O (Ac-DDIV[Pro(4R-Bn)][Nva]-OH) | 60 | –
CCC[C@H](NC(=O)[C@@H]1C[C@@H](CCCc2ccccc2)CN1C(=O)[C@@H](NC(=O)[C@@H](NC(=O)[C@H](CC(=O)O)NC(=O)[C@H](CC(=O)O)NC(C)=O)[C@@H](C)CC)C(C)C)C(=O)O (Ac-DDIV[X2][Nva]-OH) | 3.3 | –
CCC[C@H](NC(=O)[C@@H]1C[C@@H](CCc2ccccc2)CN1C(=O)[C@@H](NC(=O)[C@@H](NC(=O)[C@H](CC(=O)O)NC(=O)[C@H](CC(=O)O)NC(C)=O)[C@@H](C)CC)C(C)C)C(=O)O (Ac-DDIV[X3][Nva]-OH) | 10 | –
CCC[C@H](NC(=O)[C@@H]1CCCN1C(=O)[C@@H](NC(=O)[C@@H](NC(=O)[C@@H](CC(=O)O)NC(=O)[C@H](CC(=O)O)NC(C)=O)[C@@H](C)CC)C(C)C)C(=O)C(F)(F)F (Ac-D[dD]IVP[Nva]-CF3) | 22 | –
CCC[C@H](NC(=O)[C@@H]1CCCN1C(=O)[C@@H](NC(=O)[C@@H](NC(=O)[C@@H](CC(=O)O)NC(=O)[C@H](CC(=O)O)NC(C)=O)[C@@H](C)CC)C(C)C)C(=O)O (Ac-D[dD]IVP[Nva]-OH) | 17 | –
CCC[C@H](NC(=O)[C@@H]1CCCN1C(=O)[C@@H](NC(=O)[C@@H](NC(=O)[C@@H](CCC(=O)O)NC(=O)[C@H](CC(=O)O)NC(C)=O)[C@@H](C)CC)C(C)C)C(=O)O (Ac-D[dE]IVP[Nva]-OH) | 7.5 | –
CC(=O)N[C@@H](CC(=O)O)C(=O)N[C@H](CCC(=O)O)C(=O)N[C@H](C(=O)N[C@H](C(=O)N1C[C@H](OCc2cccc3ccccc23)C[C@H]1C(=O)NC1(C(=O)O)CC1)C(C)C)C1CCCCC1 (Ac-D[dE][Chg]V[Hyp](CH2(1-naphthyl))[Ac3c]-OH) | 0.013 | –
CCC[C@H](NC(=O)[C@@H]1C[C@@H](OCc2ccc3ccccc3c2)CN1C(=O)[C@@H](NC(=O)[C@@H](NC(=O)[C@@H](CCC(=O)O)NC(=O)[C@H](CC(=O)O)NC(C)=O)C1CCCCC1)C(C)C)C(=O)O (Ac-D[dE][Chg]V[Hyp](X1)[Nva]-OH) | 0.027 | IC50 [2]: > 300 µM; Ki [3]: 0.003 µM; IC50 [4]: > 300 µM; IC50 [5]: > 300 µM
CC(=O)N[C@H](C(=O)N[C@H](C(=O)N1C[C@H](OCc2cccc3ccccc23)C[C@H]1C(=O)NC1(C(=O)O)CC1)C(C)C)C1CCCCC1 (Ac-[Chg]V[Hyp](CH2(1-naphthyl))[Ac3c]-OH) | 3.5 | IC50 [5]: > 600 µM
CC(C)[C@H](NC(=O)[C@@H](NC(=O)CCCC(=O)O)C1CCCCC1)C(=O)N1C[C@H](OCc2cccc3ccccc23)C[C@H]1C(=O)NC1(C(=O)O)CC1 (Glutaryl-[Chg]V[Hyp](CH2(1-naphthyl))[Ac3c]-OH) | 0.9 | –

Reference: ChEMBL document CHEMBL1133484 (Bioorg Med Chem Lett, 2000)
